Measured values taken from patent publication US20030166583A1, “Dermal cytochrome P450 1A inhibitors and enhancers” (priority 2002, published 2003).
“Also recorded” adds a separate entry of the source.

Assays:
CYP1A [1] = assay: in vitro; settings: nude, mouse
Description: Nude mice were sacrificed by decapitation.
The precipitate containing the microsomes was obtained.

liver CYP1A = assay: Liver microsomal CYP1A enzymatic activity, inhibition or enhancement; settings: at certain concentration (1, 10 or 100 μM)
Description: (§1) Nude mice were sacrificed by decapitation. The skin and liver were immediately removed and kept in ice bath or 4° C. […] Connective tissue, blood, and fat were carefully removed from the tissue. Excess water content was removed from the homogenized tissue by tissue papers before the tissue was weighed.
(§2) The suspension of homogenized tissue in potassium chloride solution was transferred into a Teflon pestle-glass homogenizer for homogenization for six (6) times. Then, potassium chloride solution was added into the homogenized suspension to bring the volume to about four (4) times of the homogenized suspension. The diluted suspension was 5 transferred into a centrifuge tube and centrifuged at 4° C., 9000 xg, for twenty (20) minutes. The supernatant containing microsomes from skin or liver tissue and other soluble substance were removed and the volume of the supernatant was brought up to four (4) times of the weight of the tissue by adding potassium chloride solution. The diluted supernatant was transferred into a centrifuge tube and centrifuged at 4° C., 100,000 xg, for one (1) hour (Beckman L8-80M). The precipitate containing the microsomes was obtained. Potassium chloride solution was added into the precipitate to bring the volume up to four (4) times of the weight of the tissue, and the suspension was centrifuged at 4° C., 100,000 xg for one (1) hour, to obtain the washed microsomes, which were stored at −78° C. in 0.1M KH2PO4-K2HPO4 buffer (pH=7.4).
(§3) The enzymatic activity of CYP1A was determined based on the activity of 7-ethoxyresorufin-O-deethylase (i.e., for CYP1A) and 7-methoxyresorufin-O-demethylase (i.e., CYP1A2). […] Except for the blank group, the reaction was triggered by adding 0.54 μM NADPH. In the test tube (16×100 mm), the reaction was carried out for ten (10) minutes at constant temperature (37° C.) with vibration and without light Methanol 2.5 ml was added into the reaction mixture to stop the reaction. Protein precipitate was removed from the reaction mixture by centrifuging the reaction mixture at 180 xg for ten (10) minutes. The supernatant was tested for florescent intensity with 550 nm as the excitation wavelength and 585 nm the emission wavelength. The florescent intensity was compared with 0.01 μM-0.1 μM standard Rhodamine B solution to obtain the reading of the CYP1A enzyme activity.

CYP1A [2] = assay: as above; settings: nude, mouse, liver microsomes, pH 7.8, probe 7-ethoxyresorufin
Description: as §1, §2, §3

[3] = pH 7.8, dermal CYP1A activity (% of control group)

activity at 10 min, 1 µM (CYP1A [1]; pH 7.8) [%] | activity at 10 min, 10 µM (CYP1A [1]; pH 7.8) [%] | activity at 10 min, 100 µM (CYP1A [1]; pH 7.8) [%] | inhibition at 10 min, 10 µM (CYP1A [1]; pH 7.8) [%] | enhancing effect on liver CYP1A activity, in words (liver CYP1A) | activity at 10 min, 1 µM (CYP1A [2]) [%] | activity at 10 min, 10 µM (CYP1A [2]) [%] | inhibition at 10 min, 100 µM (CYP1A [1]; pH 7.8) [%] | activity at 10 min, 100 µM (CYP1A [2]) [%] | inhibitory effect on liver CYP1A activity, in words (liver CYP1A) | activity at 10 min, 1 µM (CYP1A [1]; [3]) [%] | activity at 10 min, 10 µM (CYP1A [1]; [3]) [%] | activity at 10 min, 100 µM (CYP1A [1]; [3]) [%] | inhibition at 10 min, 1 µM (CYP1A [1]; pH 7.8) [%] | enhancing effect on liver CYP1A activity, in words (liver CYP1A; listed as 3-phenylpryl acetate) | Structure (SMILES)
72.5 | 52.7 | 75.8 | ~47 | enhancing effect | 120 | 119 |  |  |  |  |  |  |  |  | O=c1ccc2ccc(O)cc2o1 [Umbelliferone]
88.2 | 97.2 | 52.4 |  | enhancing effect | 113 | 115 | ~48 | 101 |  |  |  |  |  |  | CCCCCCCCCCCCO [Lauryl alcohol]
101 | 78.2 | 73.6 |  | enhancing effect | 82 | 98 | ~26 | 100 | inhibitory effects |  |  |  |  |  | C=CC(=C)CCC=C(C)C [Beta-Myrcene]
98.9 | 102 | 107 |  | enhancing effect | 118 | 99.9 |  | 89.1 | inhibitory effects |  |  |  |  |  | CC1(C)[C@@H](O[C@H]2O[C@H](C(=O)O)[C@@H](O)[C@H](O)[C@H]2O[C@@H]2O[C@H](C(=O)O)[C@@H](O)[C@H](O)[C@H]2O)CC[C@]2(C)[C@H]3C(=O)C=C4[C@@H]5C[C@@](C)(C(=O)O)CC[C@]5(C)CC[C@@]4(C)[C@]3(C)CC[C@@H]12 [Glycyrrihizin, Glycyrrhizin]
 |  |  |  | enhancing effect | 123 | 124 |  | 121 |  | 91 | 105 | 104 |  |  | C[C@@]12C[C@@]3(O)O[C@@H](O1)[C@]1(COC(=O)c4ccccc4)[C@H]3C[C@@]12O[C@@H]1O[C@H](CO)[C@@H](O)[C@H](O)[C@H]1O [Paeoniflorin]
64.3 | 54.3 | 32.9 |  | enhancing effect | 108 | 97.3 | ~67 | 43.8 | inhibitory effects |  |  |  |  |  | COc1ccc(-c2cc(=O)c3c(O)cc(O[C@@H]4O[C@H](CO[C@@H]5O[C@@H](C)[C@H](O)[C@@H](O)[C@H]5O)[C@@H](O)[C@H](O)[C@H]4O)cc3o2)cc1O [Diosmin]

Structure (SMILES) | activity at 10 min, 1 µM (CYP1A [1]; pH 7.8) [%] | activity at 10 min, 10 µM (CYP1A [1]; pH 7.8) [%] | activity at 10 min, 100 µM (CYP1A [1]; pH 7.8) [%] | inhibition at 10 min, 10 µM (CYP1A [1]; pH 7.8) [%] | enhancing effect on liver CYP1A activity, in words (liver CYP1A) | activity at 10 min, 1 µM (CYP1A [2]) [%] | activity at 10 min, 10 µM (CYP1A [2]) [%] | inhibition at 10 min, 100 µM (CYP1A [1]; pH 7.8) [%] | activity at 10 min, 100 µM (CYP1A [2]) [%] | inhibitory effect on liver CYP1A activity, in words (liver CYP1A) | activity at 10 min, 1 µM (CYP1A [1]; [3]) [%] | activity at 10 min, 10 µM (CYP1A [1]; [3]) [%] | activity at 10 min, 100 µM (CYP1A [1]; [3]) [%] | inhibition at 10 min, 1 µM (CYP1A [1]; pH 7.8) [%] | enhancing effect on liver CYP1A activity, in words (liver CYP1A; listed as 3-phenylpryl acetate)
CC(Cc1ccc(O)c(O)c1)C(C)Cc1ccc(O)c(O)c1 (centres unmarked) [Nordihydroguaiaretic acid] | 110 | 96.6 | 59.5 |  | enhancing effect; also recorded: most enhancing effect | 140 | 147 | ~41 | 119 |  |  |  |  |  | 
CC(=O)OCCCc1ccccc1 [3-Phenyl propyl acetate, 3-phenylpropyl acetate] | 28.3 | 89.4 | 85 |  | enhancing effect; also recorded: most enhancing effect | 151 | 143 |  | 157 |  |  |  |  | ~72 | enhancing effect
O=c1c(O)c(-c2ccc(O)c(O)c2)oc2cc(O)cc(O)c12 [Quercetin] | 67.9 | 41.9 | 8.37 |  | enhancing effect | 114 | 86.7 | ~92 | 19.2 | inhibitory effects; also recorded: most inhibitory effect; also recorded: most effective inhibitors |  |  |  |  | 
